From the supplement of paper PMC10307832

Columns and labels:
Assay in all cases: relative viability (nuclei count vs DMSO), 5 days (fraction); higher = more cells survive
[1] = compound: CCC1=CN=CN=C1N2CCN(CC2)CC3=NC4=C(N3)C=C(C=C4)C(F)(F)F + CC(=O)Nc1cccc(-n2c(=O)n(C3CC3)c(=O)c3c(Nc4ccc(I)cc4F)n(C)c(=O)c(C)c32)c1 [Trametinib] (partner 0.02 µM)
Outline: (§1)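 A single step with final 0.05% Triton X-100, 1% formaldehyde and 1 ug/ml Hoechst fixed the cells and stained nuclei 5 days after treatment. Lung cancer cell lines in 1536-well plates had been treated by pin tool the day after seeding with one drug alone or a fixed anchor-drug dose plus five library-drug doses (not always all listed) in √10 steps, and nuclei were counted on 4× images. Relative viability is the ratio of nuclei in treated wells to nuclei in vehicle wells, taken as the median of duplicate plates.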

[2] = compound: CCC1=CN=CN=C1N2CCN(CC2)CC3=NC4=C(N3)C=C(C=C4)C(F)(F)F + CS(=O)(=O)N1CCN(Cc2cc3nc(-c4cccc5[nH]ncc45)nc(N4CCOCC4)c3s2)CC1 [Pictilisib] (partner 1 µM)
Outline: as §1

[3] = compound: CCn1c(-c2nonc2N)nc2cnc(Oc3cccc(NC(=O)c4ccc(OCCN5CCOCC5)cc4)c3)cc21 + Cc1nc(NC(=O)N2CCC[C@H]2C(N)=O)sc1-c1ccnc(C(C)(C)C(F)(F)F)c1 [Alpelisib] (partner 2 µM)
Outline: as §1

Mirin + Phenformin = compound: N=C1NC(=O)/C(=C/c2ccc(O)cc2)S1 [Mirin] + N=C(N)NC(=N)NCCc1ccccc1 [Phenformin] (partner 250 µM)
Outline: as §1

Cell Line | relative viability ([1]; first compound 0.04 µM) | relative viability ([1]; first compound 0.1265 µM) | relative viability ([1]; first compound 0.4 µM) | relative viability ([1]; first compound 4 µM) | relative viability ([2]; first compound 0.04 µM) | relative viability ([2]; first compound 0.1265 µM) | relative viability ([2]; first compound 0.4 µM) | relative viability ([2]; first compound 4 µM) | relative viability ([3]; first compound 0.04 µM) | relative viability ([3]; first compound 0.1265 µM) | relative viability ([3]; first compound 0.4 µM) | relative viability ([3]; first compound 1.265 µM) | relative viability ([3]; first compound 4 µM) | relative viability (Mirin + Phenformin; first compound 0.25 µM) | relative viability (Mirin + Phenformin; first compound 0.7906 µM) | relative viability (Mirin + Phenformin; first compound 2.5 µM) | relative viability (Mirin + Phenformin; first compound 7.906 µM) | relative viability (Mirin + Phenformin; first compound 25 µM) | relative viability ([1]; first compound 1.265 µM) | relative viability ([2]; first compound 1.265 µM)
NCI-H2405 | 0.676 | 0.666 | 0.624 | 0.68 | 0.486 | 0.379 | 0.43 | 0.575 | 0.893 | 0.425 | 0.368 | 0.326 | 0.274 | 0.395 | 0.392 | 0.392 | 0.346 | 0.37 | – | –
NCI-H3122 | 0.19 | 0.248 | 0.201 | 0.184 | 0.69 | 0.578 | 0.609 | 0.659 | 0.831 | 0.885 | 0.782 | 0.729 | 0.82 | 0.378 | 0.426 | 0.414 | 0.378 | 0.467 | 0.219 | 0.665
PC-3 [JPC-3] | – | 0.632 | 0.671 | 0.682 | 0.704 | 0.657 | 0.604 | 0.697 | 1.1 | 1.02 | 1.01 | 1.07 | 1.05 | 0.462 | 0.48 | 0.513 | 0.513 | 0.522 | 0.634 | 0.739
PC-14 | 0.828 | 0.808 | 0.714 | 0.779 | 0.845 | 0.621 | 0.671 | 0.6 | 1.06 | 0.935 | 0.871 | 0.77 | 0.805 | 0.595 | 0.509 | 0.659 | 0.553 | 0.814 | 0.71 | 0.573
RERF-LC-KJ | 0.795 | 0.798 | 0.821 | 0.774 | 0.558 | 0.498 | 0.487 | 0.505 | 0.846 | 0.809 | 0.733 | 0.662 | 0.507 | 0.37 | 0.543 | 0.418 | 0.487 | 0.461 | 0.76 | 0.444
SK-LU-1 | 0.635 | 0.483 | 0.465 | 0.476 | 0.573 | 0.494 | 0.469 | 0.486 | 1.17 | 0.821 | 0.599 | 0.42 | 0.349 | 0.643 | 0.486 | 0.522 | 0.497 | 0.44 | 0.35 | –
SK-MES-1 | 0.569 | 0.503 | 0.582 | 0.563 | 0.431 | 0.354 | 0.346 | 0.38 | 0.924 | 0.735 | 0.656 | – | 0.684 | 0.678 | 0.852 | 0.693 | 0.746 | 0.771 | 0.516 | 0.282
SW 1573 | 0.652 | 0.58 | 0.513 | 0.497 | 0.441 | 0.43 | 0.44 | 0.426 | 0.968 | 0.823 | 0.48 | 0.397 | 0.276 | 0.384 | 0.413 | 0.378 | 0.385 | 0.262 | 0.47 | 0.474
